Assay results published in PubChem BioAssay (NCI).
Where “and” joins values, the source holds several entries; their conditions need not be identical. Identical values can stand only once.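 Protocol summary: plate cells (96-well), add compound at 5 concentrations, incubate 48 h, interpolate endpoints linearly. GI50 = concentration required for 50% inhibition of growth. TGI is the concentration that stops growth completely.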

Assays:
Assay in all cases: growth of human tumour cells (NCI), 48 h
[1] = system: BT-549 breast
[2] = system: IGROV1 ovarian
[3] = system: LOX IMVI melanoma
[4] = system: M14 melanoma
[5] = system: MCF7 breast
[6] = system: NCI-H226 lung
[7] = system: NCI/ADR-RES ovarian
[8] = system: SF-539 CNS
[9] = system: SNB-19 CNS
[10] = system: SW-620 colon

Row | SMILES | GI50 [1] | TGI [1] | GI50 [2] | TGI [2] | GI50 [3] | TGI [3] | GI50 [4] | TGI [4] | GI50 [5] | TGI [5] | GI50 [6] | TGI [6] | GI50 [7] | TGI [7] | GI50 [8] | TGI [8] | GI50 [9] | TGI [9] | GI50 [10] | TGI [10]
1 | O=C(Nc1cc(Cl)cc(Cl)c1)c1ccc(NC2=C(Cl)C(=O)N(Cc3ccc(Cl)cc3Cl)C2=O)cc1 | 1.57 µM | 7.22 µM | 2.15 µM | 7.17 µM | 1.5 µM | 4.19 µM | 10.1 µM | 61.7 µM | 3.18 µM | 12.9 µM | 14.4 µM | 35 µM | 29.7 µM | > 100 µM | 6.94 µM | 25.3 µM | 21.4 µM | 83.4 µM | 1.38 µM | 13.1 µM
2 | O=C(CNc1ccc2c(c1)C(=O)c1ccccc1C2=O)Nc1ccc2c(c1)C(=O)c1ccccc1C2=O | 0.641 µM | 1.99 µM | 0.681 µM | 2.7 µM | 0.142 µM | 0.317 µM | 0.712 µM | 2.04 µM | 0.809 µM | 2.6 µM | 0.568 µM | 1.44 µM | 0.819 µM | 4.68 µM | 1.78 µM | 3.46 µM | 1.45 µM | 2.9 µM | 0.186 µM | 0.371 µM
3 | Cc1ccc(-n2c3c(c4c(CN(C)C)c(O)ccc42)CCc2ccccc2C3=O)cc1 | 14.9 µM | 29.7 µM | 10.8 µM | 25.8 µM | 15.8 µM | 29.5 µM | 16.1 µM | 30.2 µM | 19 µM | 38.8 µM | 18.1 µM | 37 µM | 14.5 µM | 34.7 µM | 19.3 µM | 36 µM | > 100 µM | > 100 µM | 15.1 µM | 33.7 µM
4 | CC[C@H](Nc1nc(NCc2cnc(C)cc2C)c2ncn(C(C)C)c2n1)[C@@H](C)O | 0.226 µM | 0.8 µM | 0.347 µM | > 100 µM | 0.252 µM | > 67.5 µM | 0.318 µM | 4.31 µM | 0.284 µM | 7.23 µM | 0.267 µM | 0.934 µM | 1.97 µM | > 31 µM | 0.24 µM | 0.781 µM | 0.318 µM | > 100 µM | 0.235 µM | > 21.9 µM
5 | C#CCC(Cc1cnc2nc(N)nc(N)c2n1)c1ccc(C(=O)N[C@@H](CCC(=O)O)C(=O)O)cc1 (some centres undefined) | > 100 µM | > 100 µM | < 0.01 µM | > 100 µM | < 0.01 µM | > 100 µM | < 0.01 µM | > 100 µM | < 0.01 µM | > 100 µM | < 0.01 µM | > 100 µM | < 0.01 µM | > 100 µM | < 0.01 µM | > 100 µM | < 0.0131 µM | > 100 µM | < 0.01 µM | > 100 µM
6 | CC(C)(O)CS(=O)(=O)Nc1ccc2c(c1)CCN(C(=O)COc1cccnc1)C2 | 2.33 µM | > 100 µM | > 84 µM | > 100 µM | > 100 µM | > 100 µM | 0.153 µM | > 100 µM | 5.1 µM | > 100 µM | > 100 µM | > 100 µM | 1.47 µM | > 100 µM | < 0.0224 µM | > 100 µM | – | > 100 µM | 0.0495 µM | > 100 µM
7 | CCOC(=O)c1[nH]c(Br)c(-c2ccc(Br)cc2)c1Br | 8.52 µM | – | 0.851 µM | 6.34 µM | 0.641 µM | 5.29 µM and 12.4 µM | – | 17.9 µM | 0.895 µM | > 100 µM | – | 6.88 µM | 0.407 µM | – | 0.298 µM | 1.85 µM and 0.858 µM | 0.454 µM | 10.4 µM | – | 14 µM
8 | COc1cc(-c2nn(-c3cccc(NC(=O)Nc4cc(C(F)(F)F)cc(C(F)(F)F)c4)c3)cc2-c2ccncc2)ccc1Cl | 1.26 µM | 3.45 µM | 0.592 µM | 2.34 µM | 0.783 µM | 1.52 µM | 0.826 µM | 4.68 µM | 0.563 µM | 8.59 µM | 1.14 µM | 11.7 µM | 1.02 µM | 7.25 µM | 0.836 µM | 1.75 µM | 0.59 µM | 4.25 µM | 0.494 µM | 2.94 µM
9 | Cc1cc2nc3c4cc(N)ccc4n(CCN(C)C)c3nc2cc1C | 2.23 µM | 8.73 µM | 0.5 µM | 4.62 µM | 0.461 µM | 3.27 µM | 1.12 µM | 2.88 µM | 0.494 µM | 7.96 µM | 0.896 µM | 4.1 µM | 0.501 µM | 9.95 µM | 0.839 µM | 4.66 µM | 0.669 µM | 11.4 µM | 0.381 µM | 10.9 µM
10 | COc1c(OC)c(OC)c2c(c1OC)c(=O)c1ccccc1n2C | – | > 100 µM | – | > 100 µM | – | > 100 µM | – | > 100 µM | – | > 100 µM | – | > 100 µM | – | > 100 µM | – | > 100 µM | – | > 100 µM | – | > 100 µM
11 | CC1(C)N=C(N)N=C(N)N1c1ccc(OCCCCOc2ccc(S(=O)(=O)F)cc2)c(Cl)c1 | 1.32 µM | 17.3 µM | 0.0602 µM | 21.8 µM | 0.0761 µM | 14.3 µM | 0.116 µM | 15.3 µM | 0.13 µM | 13 µM | 0.58 µM | 28.1 µM | 71.6 µM | > 100 µM | 0.398 µM | 8.39 µM | 0.259 µM | 17.8 µM | 0.0379 µM | 14 µM
12 | C=C(CN1C(=O)[C@H]2CCCN2C(=O)c2ccccc21)c1ccc(C(=O)O)cc1 | > 100 µM | > 100 µM | > 100 µM | > 100 µM | > 100 µM | > 100 µM | > 100 µM | > 100 µM | > 100 µM | > 100 µM | > 100 µM | > 100 µM | > 100 µM | > 100 µM | > 100 µM | > 100 µM | > 100 µM | > 100 µM | > 100 µM | > 100 µM
